Source: ChEMBL document CHEMBL4043214, “Design, synthesis, and SAR study of 3-(benzo[d][1,3]dioxol-5-yl)-N-benzylpropanamide as novel potent synergists against fluconazole-resistant Candida albicans” (2017)
In brackets after ≈: the same amount, converted by molar mass.

Legend:
Type in all cases: functional
Candida albicans [1] = assay: Anti-fungal activity against fluconazole-resistant Candida albicans isolate 100 by microbroth dilution method
Candida albicans [2] = assay: Anti-fungal activity against fluconazole-resistant Candida albicans isolate 103 by microbroth dilution method
Candida albicans [3] = assay: Synergistic anti-fungal activity against fluconazole-resistant Candida albicans isolate 100 in presence of fluconazole by two-fold dilution method
Candida albicans [4] = assay: Synergistic anti-fungal activity against fluconazole-resistant Candida albicans isolate 103 in presence of fluconazole by two-fold dilution method
Candida albicans [5] = assay: Potentiation of fluconazole-induced anti-fungal activity against fluconazole-resistant Candida albicans isolate 103 by two-fold dilution method
Candida albicans [6] = assay: Potentiation of fluconazole-induced anti-fungal activity against fluconazole-resistant Candida albicans isolate 100 by two-fold dilution method
Candida albicans [7] = assay: Potentiation of fluconazole-induced anti-fungal activity against fluconazole-resistant Candida albicans isolate 103 assessed as fluconazole MIC80 at 4 ug/ml by checkerboard microdilution assay
Candida albicans [8] = assay: Potentiation of fluconazole-induced anti-fungal activity against fluconazole-resistant Candida albicans isolate 103 assessed as fluconazole MIC80 at 8 ug/ml by checkerboard microdilution assay
Candida albicans [9] = assay: Potentiation of fluconazole-induced anti-fungal activity against fluconazole-resistant Candida albicans isolate 103 assessed as fluconazole MIC80 at 2 ug/ml by checkerboard microdilution assay
Candida albicans [10] = assay: Potentiation of fluconazole-induced anti-fungal activity against fluconazole-resistant Candida albicans isolate 103 assessed as fluconazole MIC80 at 1 ug/ml by checkerboard microdilution assay
Candida albicans [11] = assay: Potentiation of fluconazole-induced anti-fungal activity against fluconazole-resistant Candida albicans isolate 100 assessed as fluconazole MIC80 at 8 ug/ml by checkerboard microdilution assay
Candida albicans [12] = assay: Potentiation of fluconazole-induced anti-fungal activity against fluconazole-resistant Candida albicans isolate 100 assessed as fluconazole MIC80 at 4 ug/ml by checkerboard microdilution assay
Candida albicans [13] = assay: Potentiation of fluconazole-induced anti-fungal activity against fluconazole-resistant Candida albicans isolate 100 assessed as fluconazole MIC80 at 2 ug/ml by checkerboard microdilution assay
Candida albicans [14] = assay: Potentiation of fluconazole-induced anti-fungal activity against fluconazole-resistant Candida albicans isolate 100 assessed as fluconazole MIC80 at 1 ug/ml by checkerboard microdilution assay
Candida albicans [15] = assay: Potentiation of fluconazole-induced anti-fungal activity against fluconazole-resistant Candida albicans isolate 103 at 8 ug/ml by checkerboard microdilution assay
Candida albicans [16] = assay: Potentiation of fluconazole-induced anti-fungal activity against fluconazole-resistant Candida albicans isolate 103 at 4 ug/ml by checkerboard microdilution assay
Candida albicans [17] = assay: Potentiation of fluconazole-induced anti-fungal activity against fluconazole-resistant Candida albicans isolate 103 at 2 ug/ml by checkerboard microdilution assay
Candida albicans [18] = assay: Potentiation of fluconazole-induced anti-fungal activity against fluconazole-resistant Candida albicans isolate 103 at 1 ug/ml by checkerboard microdilution assay
Candida albicans [19] = assay: Potentiation of fluconazole-induced anti-fungal activity against fluconazole-resistant Candida albicans isolate 100 at 8 ug/ml by checkerboard microdilution assay
Candida albicans [20] = assay: Potentiation of fluconazole-induced anti-fungal activity against fluconazole-resistant Candida albicans isolate 100 at 4 ug/ml by checkerboard microdilution assay
Candida albicans [21] = assay: Potentiation of fluconazole-induced anti-fungal activity against fluconazole-resistant Candida albicans isolate 100 at 2 ug/ml by checkerboard microdilution assay
Candida albicans [22] = assay: Potentiation of fluconazole-induced anti-fungal activity against fluconazole-resistant Candida albicans isolate 100 at 1 ug/ml by checkerboard microdilution assay

Compound | MIC80 (Candida albicans [1]) | MIC80 (Candida albicans [2]) | MIC80 (Candida albicans [3]) | MIC80 (Candida albicans [4]) | fractional inhibitory concentration index (FICI) (Candida albicans [5]) | fractional inhibitory concentration index (FICI) (Candida albicans [6]) | also measured
O=C(CCc1ccc2c(c1)OCO2)NCc1ccccc1-c1ccc(F)cc1 | > 64 µg/mL | > 64 µg/mL | 0.5 µg/mL | 0.5 µg/mL | 0.066 | 0.066 | –
O=C(CCc1ccc2c(c1)OCO2)NCc1ccc(-c2cccc(F)c2)cc1 | > 64 µg/mL | > 64 µg/mL | 0.25 µg/mL | 0.25 µg/mL | 0.064 | 0.064 | –
Cc1cccc(-c2ccc(CNC(=O)CCc3ccc4c(c3)OCO4)cc2)c1 | > 64 µg/mL | > 64 µg/mL | 0.5 µg/mL | 1 µg/mL | 0.07 | 0.066 | –
O=C(CCc1ccc2c(c1)OCO2)NCc1ccc(Br)cc1 | > 64 µg/mL | > 64 µg/mL | 0.5 µg/mL | 1 µg/mL | 0.07 | 0.066 | –
O=C(CCc1ccc2c(c1)OCO2)NCc1ccc(-c2ccc(F)cc2F)cc1 | > 64 µg/mL | > 64 µg/mL | 0.063 µg/mL | 0.125 µg/mL | 0.063 | 0.063 | –
O=C(CCc1ccc2c(c1)OCO2)NCc1ccc(-c2cccs2)cc1 | > 64 µg/mL | > 64 µg/mL | 0.063 µg/mL | 0.125 µg/mL | 0.063 | 0.063 | –
Cc1ccc(-c2ccc(CNC(=O)CCc3ccc4c(c3)OCO4)cc2)cc1 | > 64 µg/mL | > 64 µg/mL | 0.063 µg/mL | 0.063 µg/mL | 0.063 | 0.063 | MIC80 (Candida albicans [7]): 1 µg/mL; MIC80 (Candida albicans [8]): 0.063 µg/mL; MIC80 (Candida albicans [9]): 1 µg/mL; MIC80 (Candida albicans [10]): 2 µg/mL; MIC80 (Candida albicans [11]): 0.063 µg/mL; MIC80 (Candida albicans [12]): 0.5 µg/mL; MIC80 (Candida albicans [13]): 1 µg/mL; MIC80 (Candida albicans [14]): 2 µg/mL; fractional inhibitory concentration index (FICI) (Candida albicans [15]): 0.063; fractional inhibitory concentration index (FICI) (Candida albicans [16]): 0.039; fractional inhibitory concentration index (FICI) (Candida albicans [17]): 0.023; fractional inhibitory concentration index (FICI) (Candida albicans [18]): 0.023; fractional inhibitory concentration index (FICI) (Candida albicans [19]): 0.063; fractional inhibitory concentration index (FICI) (Candida albicans [20]): 0.035; fractional inhibitory concentration index (FICI) (Candida albicans [21]): 0.023; fractional inhibitory concentration index (FICI) (Candida albicans [22]): 0.023
O=C(CCc1ccc2c(c1)OCO2)NCc1cccc(-c2ccc(F)cc2)c1 | > 64 µg/mL | > 64 µg/mL | 0.5 µg/mL | 1 µg/mL | 0.07 | 0.066 | –
O=C(Cc1ccccc1F)NCCc1ccc2c(c1)OCO2 | > 64 µg/mL | > 64 µg/mL | 1 µg/mL | 1 µg/mL | 0.07 | 0.07 | –
Cc1ccccc1CNC(=O)CCc1ccc2c(c1)OCO2 | > 64 µg/mL | > 64 µg/mL | 0.25 µg/mL | 0.5 µg/mL | 0.066 | 0.064 | –
N#Cc1ccc(-c2ccc(CNC(=O)CCc3ccc4c(c3)OCO4)cc2)cc1 | > 64 µg/mL | > 64 µg/mL | 8 µg/mL | 8 µg/mL | 0.125 | 0.125 | –
COc1ccc(-c2ccc(CNC(=O)CCc3ccc4c(c3)OCO4)cc2)cc1 | > 64 µg/mL | > 64 µg/mL | 0.25 µg/mL | 0.5 µg/mL | 0.066 | 0.064 | –
O=C(CCc1ccc2c(c1)OCO2)NCc1ccccc1F | > 64 µg/mL | > 64 µg/mL | 0.5 µg/mL | 0.5 µg/mL | 0.066 | 0.066 | –
O=C(CCc1ccc2c(c1)OCO2)NCc1ccc(-c2ccc(Cl)cc2)cc1 | > 64 µg/mL | > 64 µg/mL | 0.5 µg/mL | 0.5 µg/mL | 0.066 | 0.066 | –
O=C(CCc1ccc2c(c1)OCO2)NCc1ccc(-c2ccco2)cc1 | > 64 µg/mL | > 64 µg/mL | 2 µg/mL | 4 µg/mL | 0.094 | 0.078 | –
O=C(CCc1ccc2c(c1)OCO2)NCc1cccc(Br)c1 | > 64 µg/mL | > 64 µg/mL | 2 µg/mL | 2 µg/mL | 0.078 | 0.078 | –
O=C(CCc1ccc2c(c1)OCO2)NCc1ccc(-c2ccccc2F)cc1 | > 64 µg/mL | > 64 µg/mL | 0.031 µg/mL | 0.031 µg/mL | 0.063 | 0.063 | MIC80 (Candida albicans [7]): 0.063 µg/mL; MIC80 (Candida albicans [8]): 0.031 µg/mL; MIC80 (Candida albicans [9]): 0.125 µg/mL; MIC80 (Candida albicans [10]): 0.25 µg/mL; MIC80 (Candida albicans [11]): 0.031 µg/mL; MIC80 (Candida albicans [12]): 0.63 µg/mL; MIC80 (Candida albicans [13]): 0.125 µg/mL; MIC80 (Candida albicans [14]): 0.125 µg/mL; fractional inhibitory concentration index (FICI) (Candida albicans [15]): 0.066; fractional inhibitory concentration index (FICI) (Candida albicans [16]): 0.032; fractional inhibitory concentration index (FICI) (Candida albicans [17]): 0.017; fractional inhibitory concentration index (FICI) (Candida albicans [18]): 0.01; fractional inhibitory concentration index (FICI) (Candida albicans [19]): 0.066; fractional inhibitory concentration index (FICI) (Candida albicans [20]): 0.032; fractional inhibitory concentration index (FICI) (Candida albicans [21]): 0.017; fractional inhibitory concentration index (FICI) (Candida albicans [22]): 0.009
O=C(CCc1ccc2c(c1)OCO2)NCc1ccc(-c2ccsc2)cc1 | > 64 µg/mL | > 64 µg/mL | 0.25 µg/mL | 0.25 µg/mL | 0.064 | 0.064 | –
Cc1ccc(-c2ccccc2CNC(=O)CCc2ccc3c(c2)OCO3)cc1 | > 64 µg/mL | > 64 µg/mL | 0.25 µg/mL | 0.25 µg/mL | 0.064 | 0.064 | –
O=C(CCc1ccc2c(c1)OCO2)NCc1cccc(F)c1 | > 64 µg/mL | > 64 µg/mL | 1 µg/mL | 1 µg/mL | 0.07 | 0.07 | –
O=C(CCc1ccc2c(c1)OCO2)NCc1ccc(-c2ccc(F)cc2)cc1 | > 64 µg/mL | > 64 µg/mL | 0.031 µg/mL | 0.063 µg/mL | 0.063 | 0.063 | MIC80 (Candida albicans [7]): 0.125 µg/mL; MIC80 (Candida albicans [8]): 0.063 µg/mL; MIC80 (Candida albicans [9]): 0.25 µg/mL; MIC80 (Candida albicans [10]): 0.25 µg/mL; MIC80 (Candida albicans [11]): 0.031 µg/mL; MIC80 (Candida albicans [12]): 0.063 µg/mL; MIC80 (Candida albicans [13]): 0.125 µg/mL; MIC80 (Candida albicans [14]): 0.25 µg/mL; fractional inhibitory concentration index (FICI) (Candida albicans [15]): 0.064; fractional inhibitory concentration index (FICI) (Candida albicans [16]): 0.032; fractional inhibitory concentration index (FICI) (Candida albicans [17]): 0.018; fractional inhibitory concentration index (FICI) (Candida albicans [18]): 0.01; fractional inhibitory concentration index (FICI) (Candida albicans [19]): 0.064; fractional inhibitory concentration index (FICI) (Candida albicans [20]): 0.032; fractional inhibitory concentration index (FICI) (Candida albicans [21]): 0.017; fractional inhibitory concentration index (FICI) (Candida albicans [22]): 0.01
O=C(CCc1ccc2c(c1)OCO2)NCc1ccc(-c2ccc(C(F)(F)F)cc2)cc1 | > 64 µg/mL | > 64 µg/mL | 4 µg/mL | 4 µg/mL | 0.094 | 0.094 | –
Cc1ccc(-c2cccc(CNC(=O)CCc3ccc4c(c3)OCO4)c2)cc1 | > 64 µg/mL | > 64 µg/mL | 1 µg/mL | 2 µg/mL | 0.078 | 0.07 | –
O=C(CCc1ccc2c(c1)OCO2)NCc1ccccc1Br | > 64 µg/mL | > 64 µg/mL | 1 µg/mL | 1 µg/mL | 0.07 | 0.07 | –
O=C(CCc1ccc2c(c1)OCO2)NCc1ccc(-c2ccncc2)cc1 | > 64 µg/mL | > 64 µg/mL | 8 µg/mL | 8 µg/mL | 0.125 | 0.125 | –
OC(Cn1cncn1)(Cn1cncn1)c1ccc(F)cc1F [FLUCONAZOLE] | 128 µg/mL (≈ 418 µM) | 128 µg/mL (≈ 418 µM) | – | – | – | – | –
